Tested on: E. coli, S. aureus, P. aeruginosa, C. albicans and A. Brasiliensis
Experiment: Challenge test, statements on all tested microorganisms together
Type: cell-based
Settings: non-preserved cream
Protocol: The various lotion or cleansing formulae were contaminated by suitable microorganisms (bacteria and yeast), as described below. The so-prepared samples were incubated as described below. Using serial dilutions and plate counts, aliquots were taken during the incubation period for determining microorganism count. Tested Microorganisms: E. coli (ATCC 8739); S. aureus (ATCC 6538); P. aeruginosa (ATCC 9027); C. albicans (ATCC 10231) and A. Brasiliensis (ATCC 16404)). Bacteria, yeast, and mold suspensions were prepared according to ISO 11930; TSA culture medium for the bacteria was obtained from Hylab (Cat. No PD-087/A); PDA culture medium for A. brasiliensis was obtained from Hylab (Cat. No PD-043); SDA culture medium for C. albicans was obtained from Hylab (Cat. No PD-044); 0.1% peptone was prepared by mixing 1 g/l Peptone in sterile water. The test was performed according ISO 11930. Each sample was contaminated with microorganisms to obtain the range of 10^5-10^6 cfulml. The inoculated formulation was mixed thoroughly to ensure a homogeneous distribution of the inoculum. Samples were stored at 25° C. Each sample was sampled in intervals of 2, 7, 14, 21 and 28 days, according to the following procedure: 100 μl of the inoculated formulation was streaked on suitable agar medium. The plates were incubated at 37° C. for bacteria and 25° C. for yeast and mold. […]

CCCCCCCC(=O)OCC(O)CO (stereo not shown) [glyceryl caprylate]
Antimicrobial activity against the tested microorganisms, in words: improved the antimicrobial activity of the tested formulations

Source: patent publication US20190150455A1, “COMPOSITIONS OF SAPONINS AND PLANT EXTRACTS” (Y&B MOTHER'S CHOICE LTD., priority 2016, published 2019)
